Assay results published in publication PMC4819177, “The rational search for selective anticancer derivatives of the peptide Trichogin GA IV: a multi-technique biophysical approach” (Scientific Reports, 2016).
Entries after “also recorded” stand apart in the source; their conditions may differ. Square brackets hold non-standard residues; d marks the D form. Peptide text beside a SMILES is read from it. * marks the point of attachment. TOAC = CC1(C)CC(N)(C(=O)O)CC(C)(C)N1[O]; Leu(ol) = CC(C)C[C@H](N)CO; Octanoyl = CCCCCCCC(=O)*; Api = NC1(C(=O)O)CCNCC1; Aib = CC(C)(N)C(=O)O

Tests used:
HeLa cells [1] = format: cell-based, human; conditions: MTT, 24 h exposure; average error about ±2 μM
Description: (§1) We studied the effect of TG and its analogues on normal (HDF) and transformed (T67 and HeLa) cells. The cellular viability was assessed after 24 hours of exposure to the peptides by the MTT assay (Table 1).
(§2) Culture media, foetal bovine serum (FBS) and antibiotics were purchased from Carlo Erba Dasit Group. The T67 human glioma cell line was derived by Lauro et al.[49] from a World Health Organization (WHO) Grade III gemistocytic astrocytoma. Human dermal fibroblasts (HDF) were obtained by ATCC. HDF were cultured in Fibroblast Basal Medium (ATCC) supplemented with 10% FBS. T67 and HeLa cells were cultured in Dulbecco’s modified Eagle’s medium (MMedical) supplemented with 10% FBS, 100 UI/ml penicillin, 100 μg/ml streptomycin, and 40 μg/ml gentamycin, and kept in a 5% CO2 atmosphere at 37 °C, with saturating humidity. Cell viability and number were measured by trypan blue exclusion method.
(§3) Cytotoxicity of peptides was estimated using a MTT assay. All the chemicals used for this assay have been purchased by sigma Aldrich and used without further purification. T67, HeLa and HDF cells were seeded in 24-well plates at 1 × 10^5 cells/well. Experiments were performed after 24 h of incubation at 37 °C in 5% CO2. After this time cells were washed and treated for 24 h with different concentrations of peptides; the cells are then incubated for 60 mins with 300 μM of MTT in culture medium. The absorbance of each well was measured at 450 nm with a spectrofluorometer (Wallac Victor multilabel counter; Perkin-Elmer Inc., Boston, MA, USA). Data are reported as the mean ± standard deviation of at least three independent experiments.

[2] = EPR of TOAC-labelled peptides in POPC SUV; format: binding; conditions: P:L 1:100, 78 μM peptide
Source text: (§4) EPR spectroscopy has been performed on TOAC-labelled analogues to determine the amount of peptide bound to the membrane and to evaluate the peptide dynamics. […] We studied all analogues in buffer solution and in POPC SUV, the same systems used for CD spectroscopy; four selected analogues (see cytotoxicity assay paragraph) were also studied interacting with a suspension of intact cells of the three cell lines. […] Additionally, from the simulations, we determined the value of the Azz hyperfine component that gives an indication of the polarity of the environment. All EPR spectra and simulations are reported in the Supplementary Information (Figs S1–S4), while in Fig. 4, we report an overview of the experiments. In the top part of the figure, we show the spectra of [TOAC^1] […]
The EPR spectra of all TOAC-labelled peptides recorded in POPC SUV are very similar to each other, and are shown in the Supplementary Information, Fig. S1. […]
(§5) Methanol, 99.9%, spectrophotometric grade, [4-(2-hydroxyethyl)-1-piperazinyl]ethanesulfonic acid (HEPES), and PBS buffer (NaCl 137 mM, KCl 2.7 mM, Na2HPO4 10 mM, KH2PO4 1.8 mM, pH 7.4) were purchased from Sigma-Aldrich. […] The spectra were recorded after 15–20 minutes of incubation of the peptide to the cell suspension. […] The microwave frequency was measured by a frequency counter, HP5342A. […]

HeLa cells [3] = test: EPR of TOAC-labelled peptides with intact HeLa cells; format: binding, human; conditions: 125 μM, 25 nmol per million cells, 15–20 min incubation
Source text: as §4, with “[TOAC^1] TG in buffer solution (blue), in SUV (red), and interacting with T67 cells (magenta). In the bottom part, we show the spectra of the other three peptides, representative of the different degrees of biological activity, interacting with intact T67 cells.” for “[TOAC^1]”
(§6) Methanol, 99.9%, spectrophotometric grade, [4-(2-hydroxyethyl)-1-piperazinyl]ethanesulfonic acid (HEPES), and PBS buffer (NaCl 137 mM, KCl 2.7 mM, Na2HPO4 10 mM, KH2PO4 1.8 mM, pH 7.4) were purchased from Sigma-Aldrich. […] The spectra were recorded after 15–20 minutes of incubation of the peptide to the cell suspension. […]

HDF cells = test: EPR of TOAC-labelled peptides with intact HDF cells; format: binding, human; conditions: 125 μM, 25 nmol per million cells, 15–20 min incubation
Source text: as §4, with “[TOAC^1] TG in buffer solution (blue), in SUV (red), and interacting with T67 cells (magenta). In the bottom part, we show the spectra of the other three peptides, representative of the different degrees of biological activity, interacting with intact T67 cells.” for “[TOAC^1]”
as §6

T67, HeLa and HDF cells = test: MTT cytotoxicity assay, summary over the three cell lines; format: cell-based, human; conditions: 24 h
Description: as §1, §3

[4] = tested on: human dermal fibroblasts (HDF); format: cell-based; conditions: MTT, 24 h exposure; average error about ±2 μM
Description: as §1, §2, §3

S. aureus = conditions: relative to TG; cited from earlier work
[5] = tested on: T67 human glioma cell line; format: cell-based; conditions: MTT, 24 h exposure; average error about ±2 μM
Description: as §1, §2, §3

[6] = tested on: suspensions of intact cells (T67, HeLa, HDF); test: EPR binding to suspensions of intact cells, summary; parameters: species or system human; conditions: over the three cell lines
Source text: The EPR spectra of all peptides interacting with suspensions of intact cells (Fig. S3) show two spectral components: the three sharp lines characteristic of peptides in aqueous solution and the broad lineshape of peptides bound to the membrane. Therefore all peptides are not fully bound to the cell membranes. The presence of two well-defined spectral components implies that the exchange of the peptides between the two phases (membrane and aqueous solution) is slow on the EPR timescale, with a frequency less than ≈1 MHz. The amount of peptide bound to the membrane is obtained from the relative contribution of each spectral component to the total area of the simulated spectrum. A detailed example of the procedure is reported in the Supplementary Information, Fig. S4. The spectra show small variations in binding for the same peptide in different cell lines, and large variations for different peptides in the same cell line. Among the analogues, [TOAC^1, Lys^6] TG and [TOAC^1, Leu^4] […]
as §5

T67 cells = test: EPR of TOAC-labelled peptides with intact T67 cells; format: binding, human; conditions: 125 μM, 25 nmol per million cells, 15–20 min incubation
Source text: as §4, with “[TOAC^1] TG in buffer solution (blue), in SUV (red), and interacting with T67 cells (magenta). In the bottom part, we show the spectra of the other three peptides, representative of the different degrees of biological activity, interacting with intact T67 cells.” for “[TOAC^1]”
as §6

Compound | EC50 (HeLa cells [1]) [µM] | % membrane-bound peptide POPC SUV [2] [%] | % membrane-bound peptide HeLa (HeLa cells [3]) [%] | % membrane-bound peptide HDF (HDF cells) [%] | cytotoxicity / selectivity in words (T67, HeLa and HDF cells) | EC50 [4] [µM] | antibacterial activity (S. aureus) | EC50 [5] [µM] | percentage of peptide bound to cells [6] | % membrane-bound peptide T67 (T67 cells) [%]
CCCCCCCC(=O)NC1(C(=O)NCC(=O)N[C@@H](CC(C)C)C(=O)NC2(C(=O)NCC(=O)NCC(=O)N[C@@H](CC(C)C)C(=O)NC(C)(C)C(=O)NCC(=O)N[C@H](C(=O)N[C@H](CO)CC(C)C)[C@@H](C)CC)CCNCC2)CC(C)(C)N([O])C(C)(C)C1 [[TOAC^1, Api^4] TG, Oct-XGLZGGLUGI-Lol] (Octanoyl-[TOAC]GL[Api]GGL[Aib]GI[Leu(ol)]) | > 20 | >99 | 21 | 28 | selective toxicity; also recorded: selective cytotoxicity towards a cancer cell line | > 20 |  |  |  | 
CCCCCCCC(=O)NC(C)(C)C(=O)NCC(=O)N[C@@H](CC(C)C)C(=O)NC(C)(C)C(=O)N[C@@H](CCCCN)C(=O)N[C@@H](CCCCN)C(=O)N[C@@H](CC(C)C)C(=O)NC(C)(C)C(=O)NCC(=O)N[C@H](C(=O)N[C@H](CO)CC(C)C)[C@@H](C)CC [[Lys^5,6] TG, Oct-UGLUKKLUGI-Lol] | 10 |  |  |  |  | 15 | remarkably increased activity | 7 |  | 
CCCCCCCC(=O)NC1(C(=O)NCC(=O)N[C@@H](CC(C)C)C(=O)NC(C)(C)C(=O)NCC(=O)NCC(=O)N[C@@H](CC(C)C)C(=O)NC(C)(C)C(=O)NCC(=O)N[C@H](C(=O)N[C@H](CO)CC(C)C)[C@@H](C)CC)CC(C)(C)N([O])C(C)(C)C1 [[TOAC^1] TG, Oct-XGLUGGLUGI-Lol] (Octanoyl-[TOAC]GL[Aib]GGL[Aib]GI[Leu(ol)]) | 3 | 100 | 78 | 84 |  | 5 |  | 1 | ~ 80% | 85
